For one data set, the system named is THP1-Blue™ NF-κB cells. As to the kind of experiment: Cell viability determination (WST-1), 24 h. It counts as cell-based. As to conditions: WST-1, 24 h incubation, serum-free medium, three independent measurements; read-out: IC50 ± SEM, viability of THP1-Blue™ NF-κB cell line. The procedure:
The cell viability was determined as was described previously. […] The final concentration of DMSO was 0.1% (v/v) in each well. Measurements were taken after 24 h incubation with the tested substances. Viability was measured by the Cell Proliferation Reagent kit WST-1 (Roche Diagnostics, Basel, Switzerland) according to the manufacturer’s manual. […] The IC50 values were calculated by four-parameter logistic (4PL) analysis from obtained viability curves.

Data set [1] concerns transcription factor NF-κB. The experiment in a line: Determination of LPS-induced NF-κB activity (Quanti-Blue, SEAP reporter). It counts as cell-based. As to conditions: for inhibition at 2 µM: concentration of compounds 2 µM; for inhibition at 2 µM / inhibition at 0.5 µM: LPS 1 µg/mL, 24 h; for inhibitory effect on NF-κB activity compared with prednisone (in words): 2 µM, same concentration as prednisone; for inhibition at 0.5 µM: concentration of compounds 0.5 µM. As to the method: The activity of NF-κB transcription factors was evaluated on THP1-Blue™ NF-κB cells as described previously. […] After 24 h of incubation, 20 µL of cultivation medium was mixed with 200 µL of Quanti-Blue™ medium (Invivogen) and incubated according to the manufacturer’s instructions at 37 °C for 30–40 min. The activity of NF-κB was determined as secretion of embryonic alkaline phosphatase spectrophotometrically in a Tecan Infinite M200 (Tecan, Männedorf Switzerland) at 650 nm and compared with an untreated control (100%).
Figure 3 Effect of the tested compounds on the activity of transcription factor NF-κB. THP1-Blue™ NF-κB cells were pretreated by compounds (2 µM; or 0.5 µM for 10, 11, and 13) or prednisone (PDS; 2 µM) dissolved in DMSO at indicated concentrations for 1 h. Then, lipopolysaccharide (LPS) 1 µg/mL was added to trigger the NF-κB activation. The activity of NF-κB was measured 24 h after LPS stimulation using QuantiBlue™ assay. Graph represents mean ± SEM. Red dotted line show value of DMSO-only treated group, azur dotted line CA treated group, and blue dotted line PDS treated group. ** indicates statistical significance (p < 0.01) to DMSO group; *** indicates statistical significance (p < 0.001) to DMSO group **** indicates statistical significance (p < 0.0001) to DMSO group.

The test system of another data set is TNF-α. As to the kind of experiment: TNF-α secretion by LPS-stimulated PMA-differentiated THP1-Blue™ NF-κB macrophages (ELISA). The data set is classed as cell-based, Human. As to conditions: 2 µM, LPS 1 µg/mL, 24 h. As to the method: Differentiated THP1-Blue™ NF-κB macrophages (see the chapter 3.6) were pre-treated for 1 h with 2 µM solutions of the tested compounds 8, 12, 6, 17, cinnamic acid, and prednisone dissolved in DMSO, or only the vehicle [0.1% (v/v) […] solution]. The inflammatory-like response was triggered by adding 1 μg/mL of LPS from E. coli 0111:B4 (Sigma-Aldrich) to the pre-treated macrophages; the control cells were left without LPS treatment. After 24 h, the supernatants were collected and the concentration of TNF-α was measured using a Human TNF-α ELISA Kit (Diaclone, Besançon, France), according to the manufacturer’s manual.
Figure 7 Effect of N-arylcinnamamide derivatives on the secretion of TNF-α. THP1-Blue™ NF-κB cells were differentiated to macrophages by PMA. Such cells were pretreated by compounds or PDS (2 µM) for 1 h, then LPS (1 µg/mL) was added to trigger the inflammatory signalization. Cultivation medium was collected 24 h after LPS stimulation, and the amount of TNF-α was measured by the ELISA technique. Graph represents mean ± SEM. * indicates statistical significance (p < 0.05) to DMSO group; ** indicates statistical significance (p < 0.01) to DMSO group **** indicates statistical significance (p < 0.0001) to DMSO group.
Background: In an ELISA, binding on a coated surface is turned into a signal by an enzyme label.

The subject of another data set is IκBα. As to the kind of experiment: Signaling pathway analysis (Western blot): IκBα level. Conditions: 2 µM, 30 min after LPS 1 µg/mL. It counts as cell-based. As to the method:
(§1) The level of IĸB and the amount of activated (phosphorylated) mitogen-activated protein (MAP) kinase p38, ERK1/2, and JNK was determined on the THP1-Blue™ NF-κB, in a way similar to that described previously. Briefly, cells cultivated in serum-free medium were pretreated with the tested compounds (8, 17, cinnamic acid, or prednisone) at concentration 2 µM. One hour later, 1 µg/mL of LPS was added, and after 30 min the cells were collected into ice-cold Mammalian Cell Lysis Buffer (Abcam, Cambridge, UK) with phosphatase inhibitors PhosSTOP (Roche, Mannheim, Germany). Cell lysates were centrifuged 3000 g/5 min/4 °C and supernatants were mixed with 5× Laemmli reducing buffer [250 mM Tris-HCl pH 6.8, 10% (w/v) SDS, 30% (v/v) glycerol, 5% (v/v) β-mercaptolethanol, 0.04% (w/v) bromphenol blue], and incubated at 95 °C for 5 min. […] The membranes were incubated at 4 °C for 16 h with primary anti-IĸB-α (Cell Signaling; product No. 4814; dilution 1:1,000), anti-p44/42 MAPK (ERK1/2) (Cell Signaling; product No. 9102; dilution 1:1,000), anti-phospho-p44/42 MAPK (ERK1/2) (Cell Signaling; product No. 9101; dilution 1:1,000), anti-JNK1/2/3 (Abcam; product No. ab179461; dilution 1:1,000), anti-phosho-JNK1/2/3 (Abcam; product No. ab76572; dilution 1:5,000), anti-p38 MAPK (Cell Signaling; product No. 8690; dilution 1:1,000), anti-phospho-p38 MAPK (Cell Signaling; product No. 9210; dilution 1:1,000), and anti-β-actin (Santa Cruz, Aachen, Germany; product No. sc-47778; dilution 1:5000) antibodies. […] The amount of bound secondary antibody was determined using WesternSure® PREMIUM Chemiluminescent Substrate (LI-COR, Lincoln, NE, USA). Chemiluminescence was detected using a LI-COR C-DiGit chemiluminescence imaging system (LI-COR).
(§2) Figure 6 Effect of N-arylcinnamamide derivatives on the activation of MAPKs. […] Cells were collected 30 min after LPS stimulation and selected proteins were detected by Western blot and immunodetection.

In a further data set the test system is MAPKs (p38, ERK1/2, JNK). The experiment in a line: Signaling pathway analysis (Western blot): phosphorylated MAPKs. The data set is classed as cell-based. Conditions: 2 µM, 30 min after LPS 1 µg/mL. As to the method: as §1, §2
A general note: A western blot detects proteins with antibodies after separation by electrophoresis.

Details of data set [2]: method as in PMID 30087309. As to conditions: cited from earlier work.

Some results are limits rather than exact numbers.

Here are results for 16 compounds from PMC6943612, “Investigation of Anti-Inflammatory Potential of N-Arylcinnamamide Derivatives” (Molecules, 2019).

For `O=C(O)/C=C/c1ccccc1` [CA, cinnamic acid, reference compound], in the data set on THP1-Blue™ NF-κB cells, the IC50 – broadly, the point on the concentration scale where inhibition reaches its midpoint – was above 30 µM. Further, in data set [1], the inhibition (commonly the change of the read-out against control, counted positive when it falls) at 2 µM was 11.4%. For the same compound, the “effect on TNF-α production (in words)” value in the data set on TNF-α was “did not affect”. Moreover, the “effect on IκBα levels” value with IκBα is given as “no effect”. Further, the “effect on MAPKs activity” value in the data set with MAPKs (p38, ERK1/2, JNK) was “no effect”.
Consider `Cc1cccc(NC(=O)/C=C/c2ccccc2)c1` [Compound 2], for which, in the data set with THP1-Blue™ NF-κB cells, the IC50 is above 30 µM. Further, in data set [1], the inhibition at 2 µM stood at 9%.
The corresponding values for `Cc1ccc(NC(=O)/C=C/c2ccccc2)cc1` [Compound 3] are above 30 µM and 8.5%.
For the compound `O=C(/C=C/c1ccccc1)Nc1cccc(C(F)(F)F)c1` [Compound 6, (2E)-3-Phenyl-N-[3-(trifluoromethyl)phenyl]prop-2-enamide], the IC50 with THP1-Blue™ NF-κB cells was 11.6 ± 1.13 µM. In data set [1], this compound had an inhibition at 2 µM of 16.7%. In addition, in the data set on TNF-α, the “decrease of the level of TNF-α” value amounted to 10.4%. In data set [2], the log k is reported as 0.4859.
With `Cc1ccc(C)c(NC(=O)/C=C/c2ccccc2)c1` [Compound 7], in the data set with THP1-Blue™ NF-κB cells, the IC50 was above 30 µM. The compound also displayed an inhibition at 2 µM in data set [1] of 14.8%.
Regarding `O=C(/C=C/c1ccccc1)Nc1cc(Cl)ccc1Cl` [Compound 8, (2E)-N-(2,5-dichlorophenyl)-3-phenylprop-2-enamide], the IC50 in the data set with THP1-Blue™ NF-κB cells was above 30 µM. Further, in data set [1], the “inhibitory effect on NF-κB activity compared with prednisone (in words)” value was “comparable with prednisone” and the inhibition at 2 µM is 22.5%. For the same compound, the “effect on IκBα levels” value in the data set on IκBα was “no effect”. Further, the “effect on MAPKs activity” value with MAPKs (p38, ERK1/2, JNK) is listed as “no effect”.
For the compound `O=C(/C=C/c1ccccc1)Nc1c(Cl)cccc1Cl` [Compound 9], in the data set with THP1-Blue™ NF-κB cells, the IC50 was above 30 µM. In addition, the inhibition at 2 µM in data set [1] worked out at 14.1%.
Turning to `O=C(/C=C/c1ccccc1)Nc1ccc(Cl)c(Cl)c1` [Compound 10], in the data set with THP1-Blue™ NF-κB cells, the IC50 was 6.28 ± 2.32 µM. For the same compound, the inhibition at 0.5 µM in data set [1] amounted to 10.9%. Also, the log k in data set [2] is recorded as 0.6821.
`O=C(/C=C/c1ccccc1)Nc1cc(Cl)cc(Cl)c1` [Compound 11]: the IC50 in the data set with THP1-Blue™ NF-κB cells came to 2.43 ± 1.06 µM. This compound also came in with an inhibition at 0.5 µM in data set [1] of 16.2%. In data set [2], the log k is 0.8155.
Take `O=C(/C=C/c1ccccc1)Nc1c(Br)cccc1Br` [Compound 12, (2E)-N-(2,6-dibromophenyl)-3-phenylprop-2-enamide]: the IC50 in the data set on THP1-Blue™ NF-κB cells is above 30 µM. Besides, in data set [1], the “inhibitory effect on NF-κB activity compared with prednisone (in words)” value is “comparable with prednisone” and 2 µM produced 23.1% inhibition. In the data set on TNF-α, the “decrease of the level of TNF-α” value came out at 10% and the “effect on TNF-α production (in words)” value was “decreased”.
In the case of `O=C(/C=C/c1ccccc1)Nc1cc(C(F)(F)F)cc(C(F)(F)F)c1` [Compound 13], in the data set with THP1-Blue™ NF-κB cells, the IC50 stood at 2.17 ± 1.19 µM. The same compound showed an inhibition at 0.5 µM in data set [1] of 19.7%. Besides, in data set [2], the log k was 0.9814.
Consider `O=C(/C=C/c1ccccc1)Nc1cc(Br)ccc1F` [Compound 14], for which, in the data set on THP1-Blue™ NF-κB cells, the IC50 was above 30 µM. The compound further gave an inhibition at 2 µM in data set [1] of 19.7%.
For `O=C(/C=C/c1ccccc1)Nc1cc(F)ccc1Br` [Compound 15, (2E)-N-(2-bromo-5-fluorophenyl)-3-phenylprop-2-enamide] the same measures were above 30 µM and 17.8%.
Take `O=C(/C=C/c1ccccc1)Nc1ccc(Br)cc1Cl` [Compound 16, (2E)-N-(4-bromo-2-chlorophenyl)-3-phenylprop-2-enamide]: the IC50 in the data set with THP1-Blue™ NF-κB cells was above 30 µM. This compound also returned an inhibition at 2 µM in data set [1] of 13.7%.
For `COc1ccc([N+](=O)[O-])cc1NC(=O)/C=C/c1ccccc1` [Compound 18, (2E)-N-(2-methoxy-5-nitrophenyl)-3-phenylprop-2-enamide], in the data set with THP1-Blue™ NF-κB cells, the IC50 was above 30 µM. Further, the inhibition at 2 µM in data set [1] is 17.6%.
In the case of `C[C@]12C=CC(=O)C=C1CC[C@@H]1[C@@H]2C(=O)C[C@@]2(C)[C@H]1CC[C@]2(O)C(=O)CO` [PDS, prednisone, reference compound], the “decrease of the level of TNF-α” value in the data set with TNF-α was found to be 70.3%.
